Results taken from PubChem BioAssay AID248 (DTP/NCI, 2004).
Values joined by “and” are separate entries in the source; they are usually repeats but may differ in a detail not shown here. Equal entries are not always repeated. Toxic doses and inconclusive results are not listed. Rule as the data show it: active = T/C of 150% or more; inactive = T/C below 125%.

System: L1210 leukemia ip in BDF1 mice, survival T/C
Assay: NCI In Vivo Anticancer Drug Screen. Data for tumor model L1210 Leukemia (intraperitoneal) in B6D2F1 (BDF1) mice
Details: endpoint: mean survival time, higher = longer survival
In short: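 In this screen, tumor-bearing mice given compound are compared to those given vehicle, and their survival values are reported as a treated-to-control quotient.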

[1] = dose: 100.0 mg/kg/injection, schedule: Q01DX001 (ip), vehicle: other
[2] = dose: 200.0 mg/kg/injection, schedule: Q01DX001 (ip), vehicle: other
[3] = dose: 400.0 mg/kg/injection, schedule: Q01DX001 (ip), vehicle: other
[4] = dose: 100.0 mg/kg/injection, schedule: Q04DX002 (ip), vehicle: Klucel (hydroxypropylcellulose) (HPC)
[5] = dose: 200.0 mg/kg/injection, schedule: Q04DX002 (ip), vehicle: Klucel (hydroxypropylcellulose) (HPC)
[6] = dose: 400.0 mg/kg/injection, schedule: Q04DX002 (ip), vehicle: Klucel (hydroxypropylcellulose) (HPC)
[7] = dose: 12.5 mg/kg/injection, schedule: Q01DX009 (ip), vehicle: Klucel (hydroxypropylcellulose) (HPC)
[8] = dose: 25.0 mg/kg/injection, schedule: Q01DX009 (ip), vehicle: Klucel (hydroxypropylcellulose) (HPC)
[9] = dose: 25.0 mg/kg/injection, schedule: Q04DX003 (ip), vehicle: Klucel (hydroxypropylcellulose) (HPC)
[10] = dose: 50.0 mg/kg/injection, schedule: Q04DX003 (ip), vehicle: Klucel (hydroxypropylcellulose) (HPC)
[11] = dose: 100.0 mg/kg/injection, schedule: Q01DX001 (ip), vehicle: Klucel (hydroxypropylcellulose) (HPC)
[12] = dose: 100.0 mg/kg/injection, schedule: Q04DX003 (ip), vehicle: Klucel (hydroxypropylcellulose) (HPC)
[13] = dose: 75.0 mg/kg/injection, schedule: Q01DX009 (ip), vehicle: Klucel (hydroxypropylcellulose) (HPC)

Measured: T/C

CCCCCCC(=O)CCCCCC/C=C/CC(O)C(O)C(N)(CO)C(=O)O (stereo unspecified)
inactive: dose: 0.78 mg/kg/injection, schedule: Q04DX002 (ip), vehicle: saline with Tween-80 104 % of control | dose: 1.56 mg/kg/injection, schedule: Q04DX002 (ip), vehicle: saline with Tween-80 104 % of control | dose: 3.13 mg/kg/injection, schedule: Q04DX002 (ip), vehicle: saline with Tween-80 100 % of control

O=C(O)CN(CCCCN(CC(=O)O)CC(=O)O)CC(=O)O
inactive: [1] 111 % of control | [2] 117 % of control | [3] 96 % of control

CCCCCCCCCCCCc1ccc(-c2cc(-c3ccccc3)cc(-c3ccccc3)c2)cc1
inactive: dose: 75.0 mg/kg/injection, schedule: Q01DX001 (ip), vehicle: saline 100 % of control | dose: 150.0 mg/kg/injection, schedule: Q01DX001 (ip), vehicle: saline 89 % of control | dose: 300.0 mg/kg/injection, schedule: Q01DX001 (ip), vehicle: saline 94 % of control

CC(C)CSC(SCC(C)C)C(OC(=O)c1ccccc1)C(OC(=O)c1ccccc1)C(COC(=O)c1ccccc1)OC(=O)c1ccccc1 (stereo unspecified)
inactive: [4] 103 % of control | [5] 94 % of control | [6] 87 % of control

Oc1cc(O)c(CN2CCOCC2)c(O)c1CN1CCOCC1
inactive: [1] 98 % of control | [2] 100 % of control | [3] 95 % of control

c1ccc([Se]c2ccccn2)nc1
inactive: [7] 101 % of control | dose: 12.5 mg/kg/injection, schedule: Q04DX003 (ip), vehicle: Klucel (hydroxypropylcellulose) (HPC) 105 % of control | dose: 25.0 mg/kg/injection, schedule: Q01DX001 (ip), vehicle: Klucel (hydroxypropylcellulose) (HPC) 102 % of control | [8] 98 % of control | [9] 103 % of control | dose: 50.0 mg/kg/injection, schedule: Q01DX001 (ip), vehicle: Klucel (hydroxypropylcellulose) (HPC) 110 % of control | [10] 107 % of control and 110 % of control | [11] 105 % of control

CCOC(=O)c1cnc(C)nc1Nc1ccccc1Br
inactive: [12] 98 % of control | dose: 200.0 mg/kg/injection, schedule: Q04DX003 (ip), vehicle: Klucel (hydroxypropylcellulose) (HPC) 93 % of control | dose: 400.0 mg/kg/injection, schedule: Q04DX003 (ip), vehicle: Klucel (hydroxypropylcellulose) (HPC) 101 % of control

CCCCN(CCCC)S(=O)(=O)O
inactive: dose: 25.0 mg/kg/injection, schedule: Q04DX002 (ip), vehicle: Klucel (hydroxypropylcellulose) (HPC) 101 % of control | dose: 50.0 mg/kg/injection, schedule: Q04DX002 (ip), vehicle: Klucel (hydroxypropylcellulose) (HPC) 108 % of control | [4] 115 % of control

CC(Br)C(=O)O (stereo unspecified)
inactive: dose: 50.0 mg/kg/injection, schedule: Q01DX001 (ip), vehicle: saline 94 % of control | dose: 100.0 mg/kg/injection, schedule: Q01DX001 (ip), vehicle: saline 111 % of control

CCCCCCCCCCCC(=O)NC(=O)N1CCOCC1
inactive: dose: 100.0 mg/kg/injection, schedule: Q01DX001 (ip), vehicle: saline with Tween-80 101 % of control | dose: 100.0 mg/kg/injection, schedule: Q01DX009 (ip), vehicle: saline with Tween-80 97 % of control | dose: 200.0 mg/kg/injection, schedule: Q01DX001 (ip), vehicle: saline with Tween-80 101 % of control | dose: 200.0 mg/kg/injection, schedule: Q01DX009 (ip), vehicle: saline with Tween-80 98 % of control | dose: 400.0 mg/kg/injection, schedule: Q01DX001 (ip), vehicle: saline with Tween-80 94 % of control | dose: 400.0 mg/kg/injection, schedule: Q01DX009 (ip), vehicle: saline with Tween-80 93 % of control

CC1CN1C1=C(Br)C(=O)C(N2CC2C)=C(Br)C1=O (stereo unspecified)
inactive: dose: 1.56 mg/kg/injection, schedule: Q01DX009 (ip), vehicle: Klucel (hydroxypropylcellulose) (HPC) 95 % of control | dose: 1.56 mg/kg/injection, schedule: Q04DX003 (ip), vehicle: saline with Tween-80 98 % of control | dose: 3.12 mg/kg/injection, schedule: Q01DX009 (ip), vehicle: Klucel (hydroxypropylcellulose) (HPC) 98 % of control | dose: 3.12 mg/kg/injection, schedule: Q04DX003 (ip), vehicle: saline with Tween-80 104 % of control | dose: 6.25 mg/kg/injection, schedule: Q01DX009 (ip), vehicle: Klucel (hydroxypropylcellulose) (HPC) 95 % of control | dose: 6.25 mg/kg/injection, schedule: Q04DX003 (ip), vehicle: saline with Tween-80 98 % of control | [7] 90 % of control | dose: 12.5 mg/kg/injection, schedule: Q04DX003 (ip), vehicle: saline with Tween-80 95 % of control | dose: 25.0 mg/kg/injection, schedule: Q04DX003 (ip), vehicle: saline with Tween-80 98 % of control

Cc1cc(Cl)nc(Cl)n1
inactive: dose: 25.0 mg/kg/injection, schedule: Q04DX002 (ip), vehicle: saline 88 % of control | dose: 50.0 mg/kg/injection, schedule: Q04DX002 (ip), vehicle: saline 98 % of control | dose: 100.0 mg/kg/injection, schedule: Q04DX002 (ip), vehicle: saline 98 % of control

CCOC(=O)CC(C[N+](=O)[O-])C(F)(F)F (stereo unspecified)
inactive: [1] 103 % of control | [2] 97 % of control | [3] 103 % of control

Nc1ccc(CSc2ccc(Cl)cc2)cc1
inactive: [7] 94 % of control | [8] 97 % of control | dose: 50.0 mg/kg/injection, schedule: Q01DX009 (ip), vehicle: Klucel (hydroxypropylcellulose) (HPC) 87 % of control | [13] 88 % of control | dose: 170.0 mg/kg/injection, schedule: Q01DX009 (ip), vehicle: Klucel (hydroxypropylcellulose) (HPC) 94 % of control

Oc1ccc2[nH]c3c(c2c1)C[P+](Cc1cccc2ccccc12)(c1ccccc1)CC3 (stereo unspecified)
inactive: [11] 98 % of control | dose: 200.0 mg/kg/injection, schedule: Q01DX001 (ip), vehicle: Klucel (hydroxypropylcellulose) (HPC) 93 % of control | dose: 400.0 mg/kg/injection, schedule: Q01DX001 (ip), vehicle: Klucel (hydroxypropylcellulose) (HPC) 96 % of control

CCCCCCCCC(C)NCCOC(=O)c1ccc(N)cc1 (stereo unspecified)
inactive: dose: 9.38 mg/kg/injection, schedule: Q01DX001 (ip), vehicle: other 102 % of control | dose: 18.75 mg/kg/injection, schedule: Q01DX001 (ip), vehicle: other 101 % of control | dose: 37.5 mg/kg/injection, schedule: Q01DX001 (ip), vehicle: other 98 % of control

O=C(Nc1ccc(F)c([N+](=O)[O-])c1)Oc1cc(=O)oc2ccccc12
inactive: [9] 104 % of control | [10] 101 % of control | dose: 75.0 mg/kg/injection, schedule: Q01DX001 (ip), vehicle: Klucel (hydroxypropylcellulose) (HPC) 102 % of control | [13] 93 % of control and 103 % of control | dose: 100.0 mg/kg/injection, schedule: Q01DX009 (ip), vehicle: Klucel (hydroxypropylcellulose) (HPC) 103 % of control and 92 % of control | [4] 95 % of control and 107 % of control | [12] 98 % of control | dose: 150.0 mg/kg/injection, schedule: Q01DX001 (ip), vehicle: Klucel (hydroxypropylcellulose) (HPC) 102 % of control | dose: 150.0 mg/kg/injection, schedule: Q01DX009 (ip), vehicle: Klucel (hydroxypropylcellulose) (HPC) 87 % of control and 92 % of control | dose: 200.0 mg/kg/injection, schedule: Q01DX009 (ip), vehicle: Klucel (hydroxypropylcellulose) (HPC) 97 % of control | [5] 100 % of control and 102 % of control | dose: 300.0 mg/kg/injection, schedule: Q01DX001 (ip), vehicle: Klucel (hydroxypropylcellulose) (HPC) 107 % of control | [6] 95 % of control and 96 % of control

NC(N)=Nc1ccc(Cc2ccc(N=C(N)N)cc2)cc1
inactive: dose: 12.5 mg/kg/injection, schedule: Q01DX Z (oral), vehicle: saline 105 % of control | dose: 25.0 mg/kg/injection, schedule: Q01DX Z (oral), vehicle: saline 103 % of control | dose: 50.0 mg/kg/injection, schedule: Q01DX Z (oral), vehicle: saline 94 % of control | dose: 100.0 mg/kg/injection, schedule: Q01DX Z (oral), vehicle: saline 93 % of control

O=C(O)CNCc1cccnc1
inactive: dose: 100.0 mg/kg/injection, schedule: Q01DX005 (ip), vehicle: water 94 % of control | dose: 100.0 mg/kg/injection, schedule: Q04DX003 (ip), vehicle: water 97 % of control | dose: 200.0 mg/kg/injection, schedule: Q01DX005 (ip), vehicle: water 100 % of control | dose: 200.0 mg/kg/injection, schedule: Q04DX003 (ip), vehicle: water 97 % of control | dose: 400.0 mg/kg/injection, schedule: Q01DX005 (ip), vehicle: water 96 % of control | dose: 400.0 mg/kg/injection, schedule: Q04DX003 (ip), vehicle: water 104 % of control
